In brackets after ≈: the same amount, converted by molar mass.
Tests used:
Candida albicans [1] = test: Antifungal activity against Candida albicans ATCC 18804 after 24 to 168 hrs by broth microdilution assay; assay type: functional
Candida albicans [2] = test: Antifungal activity against Candida albicans PTCC 6027 after 24 to 168 hrs by broth microdilution assay; assay type: functional
Nakaseomyces glabratus [3] = test: Antifungal activity against Candida glabrata IFRC 339 after 24 to 168 hrs by broth microdilution assay; assay type: functional
Cryptococcus neoformans = test: Antifungal activity against Cryptococcus neoformans IFRC 192 after 24 to 168 hrs by broth microdilution assay; assay type: functional
Aspergillus fumigatus = test: Antifungal activity against Aspergillus fumigatus ATCC 1028 after 24 to 168 hrs by broth microdilution assay; assay type: functional
Candida albicans [4] = test: Ratio of fluconazole MIC to compound MIC for Candida albicans ATCC 18804; assay type: functional
Candida albicans [5] = test: Ratio of fluconazole MIC to compound MIC for Candida albicans PTCC 6027; assay type: functional
Nakaseomyces glabratus [6] = test: Ratio of fluconazole MIC to compound MIC for Candida glabrata IFRC 339; assay type: functional
HepG2 = test: Cytotoxicity against human HepG2 cells after 2 days by MTT assay; assay type: cell-based; conditions: HepG2, 48 h
[7] = Stability of the compound in deuterated DMSO at RT after 2 weeks by 1H-NMR spectroscopy; assay type: physicochemical; conditions: 336 h
[8] = Stability of the compound in PBS at 0.15 to 6 ug/ml at pH 5.8 to 8 at RT after 2 weeks by UV spectrophotometry; assay type: physicochemical; conditions: buffer, pH 5.8, 336 h

Row | Structure (SMILES) | MIC (Candida albicans [1]) [µg/mL] | MIC (Candida albicans [2]) [µg/mL] | MIC (Nakaseomyces glabratus [3]) [µg/mL] | MIC (Cryptococcus neoformans) [µg/mL] | MIC (Aspergillus fumigatus) [µg/mL] | Ratio (Candida albicans [4]) | Ratio (Candida albicans [5]) | Ratio (Nakaseomyces glabratus [6]) | IC50 (HepG2) [µg/mL] | Stability [7] | Stability [8]
1 | OC(CSc1nnc(-c2ccccc2)[nH]1)(Cn1cncn1)c1ccc(F)cc1F (centres undefined) | 0.5 (≈ 1.21 µM) | 8 (≈ 19.3 µM) | 128 (≈ 309 µM) | > 128 | > 128 |  |  |  |  |  | 
2 | Oc1ccc(-c2nnc(SCC(O)(Cn3cncn3)c3ccc(F)cc3F)[nH]2)cc1 (centres undefined) | > 128 | > 128 | 128 (≈ 297 µM) | > 128 | > 128 |  |  |  |  |  | 
3 | Cc1ccc(-c2nnc(SCC(O)(Cn3cncn3)c3ccc(F)cc3F)[nH]2)cc1 (centres undefined) | 2 (≈ 4.67 µM) | 2 (≈ 4.67 µM) | 128 (≈ 299 µM) | > 128 | > 128 |  |  |  |  |  | 
4 | COc1ccc(-c2nnc(SCC(O)(Cn3cncn3)c3ccc(F)cc3F)[nH]2)cc1 (centres undefined) | 2 (≈ 4.5 µM) | 4 (≈ 9 µM) | 4 (≈ 9 µM) | > 128 | > 128 |  |  |  |  |  | 
5 | OC(CSc1nnc(-c2ccc(F)cc2)[nH]1)(Cn1cncn1)c1ccc(F)cc1F (centres undefined) | 8 (≈ 18.5 µM) | 4 (≈ 9.25 µM) | 4 (≈ 9.25 µM) | > 128 | > 128 |  |  |  |  |  | 
6 | OC(CSc1nnc(-c2ccc(Cl)cc2)[nH]1)(Cn1cncn1)c1ccc(F)cc1F (centres undefined) | 0.5 (≈ 1.11 µM) | 1 (≈ 2.23 µM) | 128 (≈ 285 µM) | > 128 | > 128 |  |  |  |  |  | 
7 | OC(CSc1nnc(-c2cccc(Br)c2)[nH]1)(Cn1cncn1)c1ccc(F)cc1F (centres undefined) | 8 (≈ 16.2 µM) | 8 (≈ 16.2 µM) | 128 (≈ 259 µM) | > 128 | > 128 |  |  |  |  |  | 
8 | OC(CSc1nnc(-c2ccc(Cl)cc2Cl)[nH]1)(Cn1cncn1)c1ccc(F)cc1F (centres undefined) | 0.5 (≈ 1.03 µM) | 0.03 (≈ 0.0621 µM) | 0.25 (≈ 0.517 µM) | 64 (≈ 132 µM) | > 128 | 8 | 4 | 4 | > 250 | Stable | Stable
9 | OC(CSc1nnc(-c2ccncc2)[nH]1)(Cn1cncn1)c1ccc(F)cc1F (centres undefined) | 64 (≈ 154 µM) | 64 (≈ 154 µM) | 128 (≈ 308 µM) | > 128 | > 128 |  |  |  |  |  | 
10 | OC(CSc1nnc(-c2ccccc2)[nH]1)(Cn1cncn1)c1ccc(Cl)cc1Cl (centres undefined) | 4 (≈ 8.94 µM) | 1 (≈ 2.24 µM) | 128 (≈ 286 µM) | > 128 | > 128 |  |  |  |  |  | 
11 | Oc1ccc(-c2nnc(SCC(O)(Cn3cncn3)c3ccc(Cl)cc3Cl)[nH]2)cc1 (centres undefined) | 16 (≈ 34.5 µM) | 16 (≈ 34.5 µM) | 128 (≈ 276 µM) | 128 (≈ 276 µM) | > 128 |  |  |  |  |  | 
12 | Cc1ccc(-c2nnc(SCC(O)(Cn3cncn3)c3ccc(Cl)cc3Cl)[nH]2)cc1 (centres undefined) | 1 (≈ 2.17 µM) | 0.125 (≈ 0.271 µM) | 128 (≈ 277 µM) | 128 (≈ 277 µM) | > 128 |  |  |  |  |  | 
13 | COc1ccc(-c2nnc(SCC(O)(Cn3cncn3)c3ccc(Cl)cc3Cl)[nH]2)cc1 (centres undefined) | 32 (≈ 67 µM) | > 128 | 128 (≈ 268 µM) | > 128 | > 128 |  |  |  |  |  | 
14 | OC(CSc1nnc(-c2ccc(F)cc2)[nH]1)(Cn1cncn1)c1ccc(Cl)cc1Cl (centres undefined) | 0.5 (≈ 1.07 µM) | 0.125 (≈ 0.269 µM) | 128 (≈ 275 µM) | > 128 | > 128 |  |  |  |  |  | 
15 | OC(CSc1nnc(-c2ccc(Cl)cc2)[nH]1)(Cn1cncn1)c1ccc(Cl)cc1Cl (centres undefined) | 0.5 (≈ 1.04 µM) | 0.125 (≈ 0.259 µM) | 128 (≈ 266 µM) | > 128 | > 128 |  |  |  |  |  | 
16 | OC(CSc1nnc(-c2cccc(Br)c2)[nH]1)(Cn1cncn1)c1ccc(Cl)cc1Cl (centres undefined) | 0.25 (≈ 0.475 µM) | 0.06 (≈ 0.114 µM) | 128 (≈ 243 µM) | 4 (≈ 7.6 µM) | > 128 | 8 |  |  |  |  | 
17 | OC(CSc1nnc(-c2ccc(Cl)cc2Cl)[nH]1)(Cn1cncn1)c1ccc(Cl)cc1Cl (centres undefined) | 0.5 (≈ 0.969 µM) | < 0.01 | 0.25 (≈ 0.484 µM) | 32 (≈ 62 µM) | > 128 | 25 | 4 | 4 | 97.1 (≈ 188 µM) |  | 
18 | OC(CSc1nnc(-c2ccncc2)[nH]1)(Cn1cncn1)c1ccc(Cl)cc1Cl (centres undefined) | 8 (≈ 17.8 µM) | 4 (≈ 8.92 µM) | 128 (≈ 285 µM) | > 128 | > 128 |  |  |  |  |  | 
19 | Nn1c(SCC(O)(Cn2cncn2)c2ccc(F)cc2F)nnc1-c1ccc(Cl)cc1Cl (centres undefined) |  | 16 (≈ 32.1 µM) |  |  |  |  |  |  |  |  | 
20 | Nn1c(SCC(O)(Cn2cncn2)c2ccc(Cl)cc2Cl)nnc1-c1ccc(Cl)cc1Cl (centres undefined) |  | 8 (≈ 15.1 µM) |  |  |  |  |  |  |  |  | 
21 | OC(Cn1cncn1)(Cn1cncn1)c1ccc(F)cc1F [FLUCONAZOLE] | 2 (≈ 6.53 µM) | 0.25 (≈ 0.816 µM) | 64 (≈ 209 µM) | 4 (≈ 13.1 µM) | 8 (≈ 26.1 µM) |  |  |  | > 250 |  | 
